Assay results: ChEMBL document CHEMBL1671627, “Increasing trends in antimicrobial resistance among clinically important anaerobes and Bacteroides fragilis isolates causing nosocomial infections: emerging resistance to carbapenems” (2008)
≈ marks a conversion by molar mass, not a printed value.

Key:
Prevotella intermedia [1] = test: Antibacterial activity against Prevotella intermedia by CLSI agar dilution method; assay type: functional
Bacteroides fragilis [2] = test: Antibacterial activity against Bacteroides fragilis by CLSI agar dilution method; assay type: functional
Bacteroides uniformis [3] = test: Antibacterial activity against beta-lactamase producing Bacteroides uniformis by CLSI agar dilution method; assay type: functional
[4] = system: Peptostreptococcus anaerobius; test: Antibacterial activity against beta-lactamase producing Peptostreptococcus anaerobius by CLSI agar dilution method; assay type: functional
Fusobacterium varium [5] = test: Antibacterial activity against Fusobacterium varium by CLSI agar dilution method; assay type: functional
[6] = system: Prevotella melaninogenica; test: Antibacterial activity against Prevotella melaninogenica by CLSI agar dilution method; assay type: functional
Veillonella parvula = test: Antibacterial activity against Veillonella parvula by CLSI agar dilution method; assay type: functional
Bacteroides caccae [7] = test: Antibacterial activity against beta-lactamase producing Bacteroides caccae by CLSI agar dilution method; assay type: functional
Clostridium septicum = test: Antibacterial activity against beta-lactamase producing Clostridium septicum by CLSI agar dilution method; assay type: functional
Clostridium perfringens = test: microbe, parasite or virus in culture; assay type: functional
Clostridium tertium = test: Antibacterial activity against beta-lactamase producing Clostridium tertium by CLSI agar dilution method; assay type: functional
[8] = system: Fusobacterium necrophorum; test: Antibacterial activity against Fusobacterium necrophorum by CLSI agar dilution method; assay type: functional
Prevotella buccae [9] = test: Antibacterial activity against Prevotella buccae by CLSI agar dilution method; assay type: functional; conditions: Segatella buccae
[10] = system: Peptoniphilus asaccharolyticus; test: Antibacterial activity against beta-lactamase producing Peptoniphilus asaccharolyticus by CLSI agar dilution method; assay type: functional
Parvimonas micra = test: Antibacterial activity against beta-lactamase producing Micromonas micros by CLSI agar dilution method; assay type: functional
Fusobacterium mortiferum [11] = test: Antibacterial activity against Fusobacterium mortiferum by CLSI agar dilution method; assay type: functional
[12] = system: Bacteroides thetaiotaomicron; test: Antibacterial activity against beta-lactamase producing Bacteroides thetaiotaomicron by CLSI agar dilution method; assay type: functional
Finegoldia magna = test: Antibacterial activity against beta-lactamase producing Finegoldia magna by CLSI agar dilution method; assay type: functional
Prevotella bivia [13] = test: Antibacterial activity against Prevotella bivia by CLSI agar dilution method; assay type: functional
[14] = system: Clostridium paraputrificum; test: Antibacterial activity against beta-lactamase producing Clostridium paraputrificum by CLSI agar dilution method; assay type: functional
Phocaeicola vulgatus [15] = test: Antibacterial activity against beta-lactamase producing Bacteroides vulgatus by CLSI agar dilution method; assay type: functional
Fusobacterium nucleatum [16] = test: Antibacterial activity against Fusobacterium nucleatum by CLSI agar dilution method; assay type: functional
Bacteroides uniformis [17] = test: Antibacterial activity against beta-lactamase producing Bacteroides uniformis assessed as susceptible isolates by CLSI agar dilution method; assay type: functional
[18] = system: Prevotella melaninogenica; test: Antibacterial activity against Prevotella melaninogenica assessed as resistant isolates by CLSI agar dilution method; assay type: functional
Bacteroides fragilis [19] = test: Antibacterial activity against Bacteroides fragilis assessed as resistant isolates by CLSI agar dilution method; assay type: functional
Fusobacterium mortiferum [20] = test: Antibacterial activity against Fusobacterium mortiferum assessed as resistant isolates by CLSI agar dilution method; assay type: functional
[21] = system: Bacteroides thetaiotaomicron; test: Antibacterial activity against beta-lactamase producing Bacteroides thetaiotaomicron assessed as resistant isolates by CLSI agar dilution method; assay type: functional
Phocaeicola vulgatus [22] = test: Antibacterial activity against beta-lactamase producing Bacteroides vulgatus assessed as susceptible isolates by CLSI agar dilution method; assay type: functional
[23] = system: Prevotella melaninogenica; test: Antibacterial activity against Prevotella melaninogenica assessed as susceptible isolates by CLSI agar dilution method; assay type: functional
Fusobacterium mortiferum [24] = test: Antibacterial activity against Fusobacterium mortiferum assessed as susceptible isolates by CLSI agar dilution method; assay type: functional
[25] = system: Fusobacterium necrophorum; test: Antibacterial activity against Fusobacterium necrophorum assessed as susceptible isolates by CLSI agar dilution method; assay type: functional
Bacteroides caccae [26] = test: Antibacterial activity against beta-lactamase producing Bacteroides caccae assessed as resistant isolates by CLSI agar dilution method; assay type: functional
Fusobacterium nucleatum [27] = test: Antibacterial activity against Fusobacterium nucleatum assessed as resistant isolates by CLSI agar dilution method; assay type: functional
Bacteroides fragilis [28] = test: Antibacterial activity against Bacteroides fragilis assessed as susceptible isolates by CLSI agar dilution method; assay type: functional
[29] = system: Bacteroides thetaiotaomicron; test: Antibacterial activity against beta-lactamase producing Bacteroides thetaiotaomicron assessed as susceptible isolates by CLSI agar dilution method; assay type: functional
Fusobacterium varium [30] = test: Antibacterial activity against Fusobacterium varium assessed as susceptible isolates by CLSI agar dilution method; assay type: functional
Prevotella bivia [31] = test: Antibacterial activity against Prevotella bivia assessed as resistant isolates by CLSI agar dilution method; assay type: functional
Fusobacterium nucleatum [32] = test: Antibacterial activity against Fusobacterium nucleatum assessed as susceptible isolates by CLSI agar dilution method; assay type: functional
Prevotella intermedia [33] = test: Antibacterial activity against Prevotella intermedia assessed as susceptible isolates by CLSI agar dilution method; assay type: functional
[34] = system: Fusobacterium necrophorum; test: Antibacterial activity against Fusobacterium necrophorum assessed as resistant isolates by CLSI agar dilution method; assay type: functional
Fusobacterium varium [35] = test: Antibacterial activity against Fusobacterium varium assessed as resistant isolates by CLSI agar dilution method; assay type: functional
Bacteroides caccae [36] = test: Antibacterial activity against beta-lactamase producing Bacteroides caccae assessed as susceptible isolates by CLSI agar dilution method; assay type: functional
Bacteroides uniformis [37] = test: Antibacterial activity against beta-lactamase producing Bacteroides uniformis assessed as resistant isolates by CLSI agar dilution method; assay type: functional
Prevotella buccae [38] = test: Antibacterial activity against Prevotella buccae assessed as susceptible isolates by CLSI agar dilution method; assay type: functional, Segatella buccae
Prevotella intermedia [39] = test: Antibacterial activity against Prevotella intermedia assessed as resistant isolates by CLSI agar dilution method; assay type: functional
Prevotella buccae [40] = test: Antibacterial activity against Prevotella buccae assessed as resistant isolates by CLSI agar dilution method; assay type: functional, Segatella buccae
Phocaeicola vulgatus [41] = test: Antibacterial activity against beta-lactamase producing Bacteroides vulgatus assessed as resistant isolates by CLSI agar dilution method; assay type: functional
Prevotella bivia [42] = test: Antibacterial activity against Prevotella bivia assessed as susceptible isolates by CLSI agar dilution method; assay type: functional

Structure (SMILES): C[C@H]1COc2c(N3CCN(C)CC3)c(F)cc3c(=O)c(C(=O)O)cn1c23.C[C@H]1COc2c(N3CCN(C)CC3)c(F)cc3c(=O)c(C(=O)O)cn1c23.O [LEVOFLOXACIN]
- MIC50 (Prevotella intermedia [1]): 1 mg/L
- MIC90 (Prevotella intermedia [1]): 16 mg/L
- MIC50 (Bacteroides fragilis [2]): 2 mg/L
- MIC90 (Bacteroides fragilis [2]): 8 mg/L
- MIC50 (Bacteroides uniformis [3]): 2 mg/L
- MIC90 (Bacteroides uniformis [3]): 8 mg/L
- MIC50 [4]: 0.5 mg/L
- MIC90 [4]: 32 mg/L
- MIC50 (Fusobacterium varium [5]): 2 mg/L
- MIC90 (Fusobacterium varium [5]): 4 mg/L
- MIC50 [6]: 1 mg/L
- MIC90 [6]: 16 mg/L
- MIC (Veillonella parvula): 0.06 mg/L
- MIC50 (Bacteroides caccae [7]): 2 mg/L
- MIC90 (Bacteroides caccae [7]): 8 mg/L
- MIC50 (Clostridium septicum): 0.5 mg/L
- MIC90 (Clostridium septicum): 4 mg/L
- MIC90 (Clostridium perfringens): 4 mg/L
- MIC50 (Clostridium tertium): 0.5 mg/L
- MIC90 (Clostridium tertium): 4 mg/L
- MIC50 [8]: 2 mg/L
- MIC90 [8]: 4 mg/L
- MIC50 (Prevotella buccae [9]): 1 mg/L
- MIC90 (Prevotella buccae [9]): 16 mg/L
- MIC50 [10]: 0.5 mg/L
- MIC90 [10]: 32 mg/L
- MIC50 (Parvimonas micra): 0.5 mg/L
- MIC90 (Parvimonas micra): 32 mg/L
- MIC50 (Fusobacterium mortiferum [11]): 2 mg/L
- MIC90 (Fusobacterium mortiferum [11]): 4 mg/L
- MIC50 [12]: 4 mg/L
- MIC90 [12]: 8 mg/L
- MIC50 (Finegoldia magna): 0.5 mg/L
- MIC90 (Finegoldia magna): 32 mg/L
- MIC50 (Prevotella bivia [13]): 1 mg/L
- MIC90 (Prevotella bivia [13]): 16 mg/L
- MIC50 [14]: 0.5 mg/L
- MIC90 [14]: 4 mg/L
- MIC50 (Phocaeicola vulgatus [15]): 2 mg/L
- MIC90 (Phocaeicola vulgatus [15]): 8 mg/L
- MIC50 (Fusobacterium nucleatum [16]): 2 mg/L
- MIC90 (Fusobacterium nucleatum [16]): 4 mg/L

Structure (SMILES): CC1(C)S[C@@H]2[C@H](NC(=O)Cc3ccccc3)C(=O)N2[C@H]1C(=O)O [PENICILLIN G]
- MIC50 (Prevotella intermedia [1]): 16 mg/L (≈ 47.8 µM)
- MIC90 (Prevotella intermedia [1]): 64 mg/L (≈ 191 µM)
- Activity (Bacteroides uniformis [17]): 0%
- MIC50 (Bacteroides fragilis [2]): 16 mg/L (≈ 47.8 µM)
- MIC90 (Bacteroides fragilis [2]): > 128 mg/L
- Activity [18]: 95%
- Activity (Bacteroides fragilis [19]): 100%
- MIC50 (Bacteroides uniformis [3]): > 128 mg/L
- MIC90 (Bacteroides uniformis [3]): > 128 mg/L
- Activity (Fusobacterium mortiferum [20]): 11%
- MIC [4]: 0.03 mg/L (≈ 0.0897 µM)
- MIC50 [4]: 0.03 mg/L (≈ 0.0897 µM)
- MIC90 [4]: 1 mg/L (≈ 2.99 µM)
- Activity [21]: 100%
- MIC50 (Fusobacterium varium [5]): 0.25 mg/L (≈ 0.748 µM)
- MIC90 (Fusobacterium varium [5]): 1 mg/L (≈ 2.99 µM)
- Activity (Phocaeicola vulgatus [22]): 0%
- MIC50 [6]: 16 mg/L (≈ 47.8 µM)
- MIC90 [6]: 64 mg/L (≈ 191 µM)
- Activity [23]: 6%
- MIC (Veillonella parvula): 0.06 mg/L (≈ 0.179 µM)
- Activity (Fusobacterium mortiferum [24]): 85%
- MIC50 (Bacteroides caccae [7]): > 128 mg/L
- MIC90 (Bacteroides caccae [7]): > 128 mg/L
- Activity [25]: 85%
- MIC50 (Clostridium septicum): 0.25 mg/L (≈ 0.748 µM)
- MIC90 (Clostridium septicum): 4 mg/L (≈ 12 µM)
- MIC50 (Clostridium perfringens): 0.25 mg/L (≈ 0.748 µM)
- MIC90 (Clostridium perfringens): 4 mg/L (≈ 12 µM)
- MIC50 (Clostridium tertium): 0.25 mg/L (≈ 0.748 µM)
- MIC90 (Clostridium tertium): 4 mg/L (≈ 12 µM)
- Activity (Bacteroides caccae [26]): 100%
- MIC50 [8]: 0.25 mg/L (≈ 0.748 µM)
- MIC90 [8]: 1 mg/L (≈ 2.99 µM)
- Activity (Fusobacterium nucleatum [27]): 11%
- Activity (Bacteroides fragilis [28]): 0%
- MIC50 (Prevotella buccae [9]): 16 mg/L (≈ 47.8 µM)
- MIC90 (Prevotella buccae [9]): 64 mg/L (≈ 191 µM)
- Activity [29]: 0%
- Activity (Fusobacterium varium [30]): 85%
- Activity (Prevotella bivia [31]): 95%
- Activity (Fusobacterium nucleatum [32]): 85%
- MIC [10]: 0.03 mg/L (≈ 0.0897 µM)
- MIC50 [10]: 0.03 mg/L (≈ 0.0897 µM)
- MIC90 [10]: 1 mg/L (≈ 2.99 µM)
- MIC (Parvimonas micra): 0.03 mg/L (≈ 0.0897 µM)
- MIC50 (Parvimonas micra): 0.03 mg/L (≈ 0.0897 µM)
- MIC90 (Parvimonas micra): 1 mg/L (≈ 2.99 µM)
- Activity (Prevotella intermedia [33]): 6%
- Activity [34]: 11%
- Activity (Fusobacterium varium [35]): 11%
- Activity (Bacteroides caccae [36]): 0%
- Activity (Bacteroides uniformis [37]): 100%
- Activity (Prevotella buccae [38]): 6%
- MIC50 (Fusobacterium mortiferum [11]): 0.25 mg/L (≈ 0.748 µM)
- MIC90 (Fusobacterium mortiferum [11]): 1 mg/L (≈ 2.99 µM)
- Activity (Prevotella intermedia [39]): 95%
- MIC50 [12]: 16 mg/L (≈ 47.8 µM)
- MIC90 [12]: > 128 mg/L
- MIC (Finegoldia magna): 0.03 mg/L (≈ 0.0897 µM)
- MIC50 (Finegoldia magna): 0.03 mg/L (≈ 0.0897 µM)
- MIC90 (Finegoldia magna): 1 mg/L (≈ 2.99 µM)
- Activity (Prevotella buccae [40]): 95%
- MIC50 (Prevotella bivia [13]): 16 mg/L (≈ 47.8 µM)
- MIC90 (Prevotella bivia [13]): 64 mg/L (≈ 191 µM)
- MIC50 [14]: 0.25 mg/L (≈ 0.748 µM)
- MIC90 [14]: 4 mg/L (≈ 12 µM)
- MIC50 (Phocaeicola vulgatus [15]): > 128 mg/L
- MIC90 (Phocaeicola vulgatus [15]): > 128 mg/L
- MIC50 (Fusobacterium nucleatum [16]): 0.25 mg/L (≈ 0.748 µM)
- MIC90 (Fusobacterium nucleatum [16]): 1 mg/L (≈ 2.99 µM)
- Activity (Phocaeicola vulgatus [41]): 100%
- Activity (Prevotella bivia [42]): 6%
